Columns and labels:
[1] = target: T1, dog GST P1-1 (Canis lupus familiaris, UniProt A0A8I3QRM6); assay: biochemical; type: biochemical; details: for IC50: 1 mM GSH and 0.4 mM benzyl isothiocyanate as substrates, standard assay conditions
[2] = target: Cys48 (UniProt position 48, SLKASCLYGQL); details: cited from earlier work
[3] = target: T1, dog GST P1-1; type: biochemical; details: compound as substrate with GSH; 30 °C; substrate-specific concentrations and pH
Experimental: The purified dog GST P1-1 enzyme was assayed spectrophotometrically with various substrates representing different types of chemical reactions, including substitution, reduction, addition, and isomerization.
Activity measurements with alternative substrates were performed spectrophotometrically on a Shimadzu (UV-250 1 PC) instrument. All measurements were conducted at 30 °C and in a 1 mL quartz cuvette, except for the alkenals, which were measured in a 0.5 mL quartz cuvette with a 5 mm light path. The conditions used with the final concentrations in the cuvette were as follows. CDNB: (Δε340 nm = 9600 cm^−1 M^−1), 1 mM GSH, 1 mM CDNB (dissolved in ethanol), measured at pH 6.5 in buffer A (0.1 M NaH2PO4/Na2HPO4 with 1 mM EDTA); CuOOH: (Δε340 nm = −6200 cm^−1 M^−1), 1 mM GSH, 1.5 mM CuOOH (dissolved in acetonitrile), 0.1 mM NADPH, 0.3 units glutathione reductase, measured at pH 7.0 in buffer A; Alkenals: (Δε225 nm = −19,200 cm^−1 M^−1), 0.5 mM GSH, 0.1 mM alkenals (dissolved in acetonitrile), measured at pH 6.5 in buffer A; EA: (Δε270 nm = 5000 cm^−1 M^−1), 0.25 mM GSH, 0.2 mM EA (dissolved in acetonitrile), measured at pH 6.5 in buffer A; AD: (Δε248 nm = 16,300 cm^−1 M^−1), 1 mM GSH, 0.1 mM AD (dissolved in methanol), measured at pH 8.0 in 0.025 M NaH2PO4/Na2HPO4 with 1 mM EDTA; PEITC: (Δε274 nm = 8890 cm^−1 M^−1), BITC: (Δε274 nm = 9250 cm^−1 M^−1), AITC: (Δε274 nm = 7450 cm^−1 M^−1), PITC: (Δε274 nm = 8350 cm^−1 M^−1), cHITC (Δε274 nm = 8520 cm^−1 M^−1), 1 mM GSH, 0.4 mM ITC (dissolved in acetonitrile), measured at pH 6.5 in buffer A.

[4] = test system: Human GST P1-1/Ile105; set-up: method as in PMID 9600848; details: compound as substrate; cited from earlier work
[5] = target: T1, dog GST P1-1; assay: Activation of the prodrug Telcyta by GST P1-1, TLC assay with ninhydrin staining; type: biochemical; details: 3 mM Telcyta, 0.25 mg/mL enzyme, pH 7.5, 37 °C, nonenzymatic background subtracted
Experimental: The prodrug Telcyta is a substrate for GSTs in a reaction releasing a multifunctional phosphorodiamidate mustard (Figure 5). The prodrug was most effectively activated by human GST P1-1 from the enzymes examined. Telcyta was tested with the dog GST P1-1 for comparison. We developed a chromatographic method to assay the reaction. Aliquots of the reaction mixture were analyzed by thin-layer chromatography (TLC), and the ninhydrin-reactive product as well as the substrate were quantified at different time points (Figure 6). Conditions were chosen to ascertain a linear response of ninhydrin staining with increasing analyte concentration. The enzymatic activity was obtained by subtracting the nonenzymatic background reaction.
Telcyta is a tripeptide derivative, which releases an alkylating agent by the action of GSTs and is converted to another tripeptide. Both substrate and product peptides are reactive with ninhydrin and the reaction can be monitored by sampling of the reaction mixture at consecutive time points. […] A background reaction was also measured in the absence of enzyme. […]
Six TLC plates (silica coated), one for each time point, were prepared and sampling occurred immediately after addition of Telcyta and every 3.5 min thereafter. The reaction was monitored over a total of 17.5 min. […]
Catalytic activity was estimated both by visual observation and by quantitative ImageJ analysis. […]

T1 sequence (A0A8I3QRM6 1-210): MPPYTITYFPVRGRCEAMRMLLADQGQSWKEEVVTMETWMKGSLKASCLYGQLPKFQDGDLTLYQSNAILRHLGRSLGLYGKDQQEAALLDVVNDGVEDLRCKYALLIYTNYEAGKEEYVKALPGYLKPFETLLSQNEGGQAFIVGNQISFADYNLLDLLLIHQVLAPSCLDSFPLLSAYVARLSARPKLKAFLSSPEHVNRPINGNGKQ

With Nc1c(S(=O)(=O)O)cc(Nc2ccc(Nc3nc(Cl)nc(Nc4ccccc4S(=O)(=O)O)n3)c(S(=O)(=O)O)c2)c2c1C(=O)c1ccccc1C2=O [Cibacron Blue] as the molecule, how does the IC50 [1] read?
Its IC50 is 0.043 ± 0.007 µM.

And the “Shape of inhibition curve (cooperativity)” value ([1]; benzyl isothiocyanate as substrate)?
The value was “positive cooperativity”.

With “Glutathione transferase P1-1 (GST P1-1, class Pi) (Homo sapiens)” as the molecule, how does the pKa [2] read?
Its pKa is 4.2.

What does the source list for O=[N+]([O-])c1ccc(Cl)c([N+](=O)[O-])c1 [1-Chloro-2,4-dinitrobenzene]?
Specific Activity, Dog GST P1-1 [3]: 23.0 ± 1.3 µmol/min/mg; Specific Activity, Human GST P1-1/Ile105 [4]: 106 µmol/min/mg

For CC(C)(OO)c1ccccc1 [Cumene hydroperoxide], which “Specific Activity, Dog GST P1-1” value [3] is on record?
Its value is 0.07 ± 0.01 µmol/min/mg.

And the “Specific Activity, Human GST P1-1/Ile105” value [4]?
The value was 0.03 µmol/min/mg.

With CCCCCC/C=C/C=O [trans-2-Nonenal] as the molecule, how does the “Specific Activity, Dog GST P1-1” value [3] read?
The value was 0.124 ± 0.005 µmol/min/mg.

Which IC50 [1] does the source give for [Cl][Sn]([c]1ccccc1)([c]1ccccc1)[c]1ccccc1 [Triphenyltin chloride] here?
Its IC50 is 3.11 ± 0.38 µM.

For C=C(CC)C(=O)c1ccc(OCC(=O)O)c(Cl)c1Cl [Ethacrynic acid], which “Specific Activity, Dog GST P1-1” value [3] is on record?
The value was 2.05 ± 0.13 µmol/min/mg.

With CC/C=C/C=O [trans-2-Pentenal] as the molecule, how does the “Specific Activity, Dog GST P1-1” value [3] read?
The value was 0.100 ± 0.002 µmol/min/mg.

For CCCCCCCCC/C=C/C=O [trans-2-Dodecenal], which “Specific Activity, Dog GST P1-1” value [3] is on record?
Its value is 0.046 ± 0.006 µmol/min/mg.

For S=C=NC1CCCCC1 [Cyclohexyl isothiocyanate], which “Specific Activity, Dog GST P1-1” value [3] is on record?
Its value is 1.27 ± 0.08 µmol/min/mg.

What about the “Specific Activity, Human GST P1-1/Ile105” value [4] of the same molecule?
The value was 11 µmol/min/mg.

Which results are given for C[C@]12CCC(=O)CC1=CC[C@@H]1[C@@H]2CC[C@]2(C)C(=O)CC[C@@H]12 [Δ^5-androstene-3,17-dione]?
Specific Activity, Dog GST P1-1 [3]: 0.014 ± 0.005 µmol/min/mg; Specific Activity, Human GST P1-1/Ile105 [4]: 0.01 µmol/min/mg

For NC(CCC(=O)NC(CS(=O)(=O)CCOP(=O)(N(CCCl)CCCl)N(CCCl)CCCl)C(=O)NC(C(=O)O)c1ccccc1)C(=O)O [Telcyta, γ-L-Glutamyl-α-amino-β-(2-ethyl-N,N,N′,N′-tetrakis(2-chloroethyl)phosphorodiamidate)sulfonylpropionyl-R(−)phenylglycine], which “Fold lower activity per mg of protein of dog GST P1-1 than the human enzyme” value [5] is on record?
The value was 18 fold.

Which “Specific Activity, Dog GST P1-1” value [3] does the source give for S=C=NCc1ccccc1 [Benzyl isothiocyanate] here?
The value was 39.0 ± 5.2 µmol/min/mg.

And the “Specific Activity, Human GST P1-1/Ile105” value [4]?
Its value is 63 µmol/min/mg.

What does the source list for CCCN=C=S [Propyl isothiocyanate]?
Specific Activity, Dog GST P1-1 [3]: 2.55 ± 0.20 µmol/min/mg; Specific Activity, Human GST P1-1/Ile105 [4]: 49 µmol/min/mg

With CCCCCCC/C=C/C=O [trans-2-Decenal] as the molecule, how does the “Specific Activity, Dog GST P1-1” value [3] read?
Its value is 0.111 ± 0.005 µmol/min/mg.

With S=C=NCCc1ccccc1 [Phenethyl isothiocyanate] as the molecule, how does the “Specific Activity, Dog GST P1-1” value [3] read?
Its value is 6.37 ± 1.03 µmol/min/mg.

What about the “Specific Activity, Human GST P1-1/Ile105” value [4] of the same molecule?
Its value is 60 µmol/min/mg.

For C=CCN=C=S [Allyl isothiocyanate], which “Specific Activity, Dog GST P1-1” value [3] is on record?
The value was 1.94 ± 0.60 µmol/min/mg.

And the “Specific Activity, Human GST P1-1/Ile105” value [4]?
The value was 38 µmol/min/mg.
